Source: patent US11535632B2, “Solid forms of an S1P-receptor modulator” (ESCAPE Bio, Inc., priority 2019, dated 2022)
Read-outs that look alike come from different tables or passages of the source.

Experiments:
Type in all cases: physicochemical
[1] = Solubility and metastable zone width by Crystal 16; details: damp material isolated from DMAC, dried
Method: A Crystal 16 crystallization system (Technobis, NL) was used to determine the solubility and metastable zone of the material as a function of temperature. Slurries of the API, in different overall concentrations, were prepared by adding a known amount of solid to a known amount of chilled solvent (between 0.5 and 1.5 ml) and stirred at 350 rpm using a magnetic bar. The saturation temperature was measured through cycles of heating and cooling from 20 to 90° C. at 0.5° C./min.
Upon increasing the temperature, the solid completely dissolved and the suspension became a clear solution such that the light transmission reached its maximum value. This temperature was assigned as the clear point, which was assumed to coincide with the saturation temperature. Then, by cooling the solution at a rate of 0.5° C./min, the temperature at which particles first formed was detected by a decrease in the light transmission. This was assigned as the cloud point. The points were fitted by a Van′t Hoff equation and the difference between the cloud and the clear points defined the metastable zone width (MSZW) of the system. The instrument control software was Crystallization Systems and the data were analyzed using Crystal Clear and Microsoft Excel.
The solubility of compound 1 (various masses) in DMAC and DMSO (1 ml) was analyzed on the Crystal 16 (between 25-90° C. for DMSO and 0-90° C. for DMAC). A heating/cooling rate of 0.5° C./min and a stirring rate of 300 rpm was used for all samples. The resulting turbidity/temperature plots were analyzed to obtain solubility curves and determine the metastable zone width. Any precipitated solids were isolated by filtration and analyzed by XRPD.

[2] = Room temperature equilibrium solubility in aqueous suspensions; details: listed as Compound 1, Form A; for Total drug in solution: room temperature equilibrium, HPLC of supernatant
[3] = Hygroscopicity evaluation by DVS at 25° C.
Method: Hygroscopicity of Compound 1, Form A and Compound 1, Form B was evaluated by DVS at 25° C.

[4] = Solid state stability study
From the text: The two lots of Compound 1 were characterized by HPLC, PLM, XRPD, DSC, TGA, and KF. […] According to the stability study at different conditions, the two forms of compound were practically stable at different humidity for at least 4 weeks, with no XRPD pattern change and no growth of impurities were found.

[5] = Competitive slurries of Form B and C in process relevant solvents; details: 90° C. in DMSO
Method: Determination of the relative stabilities of Form B and Form C was undertaken to identify which material was more thermodynamically stable in process relevant solvents. As a suspected solvate was isolated from experiments where DMAC was used as a solvent, only DMSO and acetic acid were determined to be appropriate process solvents. Combinations of these solvents with relevant antisolvents were therefore selected for the competitive slurry experiments.
Compound 1 (from Example 2) was dispensed into HPLC vials. To these, 1 ml of selected solvents was subsequently added to give a suspension. Materials were slurried for 72 hours at 90° C., 50° C. or 25° C. with 500 rpm stirring. Material was subsequently isolated by centrifugation and analyzed by XRPD.

## O=C(O)[C@H]1C[C@@H](N2CCc3oc(-c4ccc(OCc5ccc(Cl)cc5)cc4)nc3C2)C1 [Form D, (1s,3s)-3-(2-(4-((4-chlorobenzyl)oxy)phenyl)-6,7-dihydrooxazolo[4,5-c]pyridin-5(4H)-yl)cyclobutane-1-carboxylic acid]
[1]
  Form change upon drying (XRPD): converted to Form C

## O=C(O)[C@H]1C[C@@H](N2CCc3oc(-c4ccc(OCc5ccc(Cl)cc5)cc4)nc3C2)C1 [Form A, (1s,3s)-3-(2-(4-((4-chlorobenzyl)oxy)phenyl)-6,7-dihydrooxazolo[4,5-c]pyridin-5(4H)-yl)cyclobutane-1-carboxylic acid]
[2]; 0.2% HPMC aqueous suspension
  Total drug in solution: 1.3 µg/mL
  pH: 7.2
[2]; 0.25% SLS aqueous suspension
  Total drug in solution: 23.7 µg/mL
  pH: 6.9
[2]; 20% HP-BCD aqueous suspension
  Total drug in solution: 446.5 µg/mL
  pH: 5.7
[3]
  XRPD after DVS test: No form change but crystallinity
[3]; 0% RH, 1st Desorp.
  DVS Desorp. (%): 0.00%
[3]; 0% RH, 1st Sorp.
  DVS Sorp. (%): 0.00%
[3]; 0% RH, 2nd Desorp.
  DVS Desorp. (%): 0.00%
[3]; 0% RH, 2nd Sorp.
  DVS Sorp. (%): 0.00%
[3]; 10% RH, 1st Desorp.
  DVS Desorp. (%): 0.01%
[3]; 10% RH, 1st Sorp.
  DVS Sorp. (%): 0.00%
[3]; 10% RH, 2nd Desorp.
  DVS Desorp. (%): 0.01%
[3]; 10% RH, 2nd Sorp.
  DVS Sorp. (%): 0.00%
[3]; 20% RH, 1st Desorp.
  DVS Desorp. (%): 0.01%
[3]; 20% RH, 1st Sorp.
  DVS Sorp. (%): −0.01%
[3]; 20% RH, 2nd Desorp.
  DVS Desorp. (%): 0.01%
[3]; 20% RH, 2nd Sorp.
  DVS Sorp. (%): 0.00%
[3]; 30% RH, 1st Desorp.
  DVS Desorp. (%): 0.02%
[3]; 30% RH, 1st Sorp.
  DVS Sorp. (%): 0.00%
[3]; 30% RH, 2nd Desorp.
  DVS Desorp. (%): 0.02%
[3]; 30% RH, 2nd Sorp.
  DVS Sorp. (%): 0.01%
[3]; 40% RH, 1st Desorp.
  DVS Desorp. (%): 0.02%
[3]; 40% RH, 1st Sorp.
  DVS Sorp. (%): 0.00%
[3]; 40% RH, 2nd Desorp.
  DVS Desorp. (%): 0.02%
[3]; 40% RH, 2nd Sorp.
  DVS Sorp. (%): 0.01%
[3]; 50% RH, 1st Sorp.
  DVS Sorp. (%): 0.01%
[3]; 50% RH, 2nd Desorp.
  DVS Desorp. (%): 0.03%
[3]; 60% RH, 1st Sorp.
  DVS Sorp. (%): 0.01%
[3]; 60% RH, 2nd Desorp.
  DVS Desorp. (%): 0.03%
[3]; 70% RH, 1st Sorp.
  DVS Sorp. (%): 0.02%
[3]; 70% RH, 2nd Desorp.
  DVS Desorp. (%): 0.04%
[3]; 80% RH, 1st Sorp.
  DVS Sorp. (%): 0.02%
[3]; 80% RH, 2nd Desorp.
  DVS Desorp. (%): 0.04%
[3]; 90% RH, 1st Sorp.
  DVS Sorp. (%): 0.03%
[3]; 90% RH, 2nd Desorp.
  DVS Desorp. (%): 0.04%
[3]; 95% RH, 1st Sorp.
  DVS Sorp. (%): 0.01%
[3]; 95% RH, 2nd Desorp.
  DVS Desorp. (%): 0.01%
[3]; listed as Compound 1, Form A
  Hygroscopicity based on DVS results: non-hygroscopic
  XRPD after DVS test: no form change but crystallinity decreased and peaks became broad
[4]; 4 weeks, 25° C./60% RH
  Crystallinity (XRPD & PLM): Crystalline
  Purity: 99.48%
  Weight loss (TGA) (~120° C.): 0.981%
[4]; 4 weeks, 40° C./75% RH
  Crystallinity (XRPD & PLM): Crystalline
  Purity: 99.46%
  Weight loss (TGA) (~120° C.): 0.884%
[4]; 6 weeks, 25° C./60% RH
  Crystallinity (XRPD & PLM): Crystalline
  Purity: 99.54%
  Water content: 0.784%
  Weight loss (TGA) (~120° C.): 0.831%
[4]; 6 weeks, 40° C./75% RH
  Crystallinity (XRPD & PLM): Crystalline
  Purity: 99.47%
  Water content: 0.547%
  Weight loss (TGA) (~120° C.): 0.739%
[4]; 8 weeks, 25° C./60% RH
  Crystallinity (XRPD & PLM): Crystalline
  Purity: 99.51%
  Water content: 0.559%
  Weight loss (TGA) (~120° C.): 0.946%
[4]; 8 weeks, 40° C./75% RH
  Crystallinity (XRPD & PLM): Crystalline
  Purity: 99.53%
  Water content: 0.608%
  Weight loss (TGA) (~120° C.): 0.801%
[4]; Initial
  Crystallinity (XRPD & PLM): Crystalline
  Purity: 99.46%
  Water content: 0.513%
  Weight loss (TGA) (~120° C.): 0.722%
[5]
  Relative thermodynamic stability: most thermodynamically stable polymorph
